The source made the active and inactive calls.
Columns and labels:
[1] = molecular target: Ribosomal protein S6 kinase alpha-3 (Homo sapiens, UniProt P51812); format: functional;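 further: measured within a kinome-wide profiling panel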
[2] = molecular target: Tyrosine-protein kinase JAK2 (Homo sapiens, UniProt O60674); format: functional;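 further: JAK2 tested as one member of a kinase panel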
[3] = molecular target: 5'-AMP-activated protein kinase catalytic subunit alpha-1 (Homo sapiens, UniProt Q13131); format: functional
[4] = molecular target: Tyrosine-protein kinase Lck (Homo sapiens, UniProt P06239); format: functional;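 further: lck was assayed as one member of a kinase panel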
[5] = molecular target: Death-associated protein kinase 3 (Homo sapiens, UniProt O43293); format: functional;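 further: measured as one member of a kinome-wide profiling panel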
[6] = molecular target: Serine/threonine-protein kinase pim-1 (Homo sapiens, UniProt P11309); format: functional
[7] = molecular target: Aurora kinase A (Homo sapiens, UniProt O14965); format: functional;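 further: value from the Navigating the Kinome kinase panel profiling, panel entry STK6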
[8] = molecular target: Serine/threonine-protein kinase PAK 4 (Homo sapiens, UniProt O96013); format: functional;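 further: value obtained within a kinome profiling panel in which PAK4 was one of the panel members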
[9] = molecular target: Fibroblast growth factor receptor 1 (Homo sapiens, UniProt P11362); format: functional
[10] = molecular target: Mitogen-activated protein kinase 9 (Homo sapiens, UniProt P45984); format: functional;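 further: value from a kinome panel profiling assay, MAPK9 panel entry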
[11] = molecular target: LIM domain kinase 1 (Homo sapiens, UniProt P53667); test: Navigating the Kinome. Panel member name: LIMK1; format: functional
[12] = molecular target: High affinity nerve growth factor receptor (Homo sapiens, UniProt P04629); format: functional;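 further: NTRK1 tested as one member of a kinome-wide profiling panel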
[13] = molecular target: Glycogen synthase kinase-3 alpha (Homo sapiens, UniProt P49840); format: functional;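 further: GSK3A result taken from a broad kinome-wide kinase panel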
[14] = molecular target: Hepatocyte growth factor receptor (Homo sapiens, UniProt P08581); format: functional;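 further: kinase panel profiling across the kinome, with MET as the panel member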
[15] = molecular target: Serine/threonine-protein kinase Chk1 (Homo sapiens, UniProt O14757); format: functional;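 further: measured as one member of a kinome-wide kinase profiling panel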
[16] = molecular target: Tyrosine-protein kinase ABL1 (Homo sapiens, UniProt P00519); format: functional
[17] = molecular target: Vascular endothelial growth factor receptor 2 (Homo sapiens, UniProt P35968); format: functional
[18] = molecular target: Cyclin-dependent kinase 5 (Homo sapiens, UniProt Q00535); format: functional;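 further: CDK5 measured as one member of a kinase profiling panel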
[19] = molecular target: Insulin-like growth factor 1 receptor (Homo sapiens, UniProt P08069); test: Navigating the Kinome. Panel member name: IGF1R; format: functional
[20] = molecular target: Aurora kinase B (Homo sapiens, UniProt Q96GD4); format: functional
[21] = molecular target: Rho-associated protein kinase 1 (Homo sapiens, UniProt Q13464); format: functional;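 further: measured within a broad kinome-wide panel profiling many kinases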
[22] = molecular target: Tyrosine-protein kinase Fyn (Homo sapiens, UniProt P06241); format: functional
[23] = molecular target: Serine/threonine-protein kinase Nek2 (Homo sapiens, UniProt P51955); format: functional
[24] = molecular target: Glycogen synthase kinase-3 beta (Homo sapiens, UniProt P49841); format: functional;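 further: value comes from a broad kinome profiling panel, with GSK3B as the panel member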
[25] = molecular target: BDNF/NT-3 growth factors receptor (Homo sapiens, UniProt Q16620); format: functional;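 further: NTRK2 measured as one member of a broad kinome-wide kinase profiling panel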
[26] = molecular target: Macrophage colony-stimulating factor 1 receptor (Homo sapiens, UniProt P07333); format: functional;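 further: value comes from the Navigating the Kinome screening panel, CSF1R member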
[27] = molecular target: Dual specificity tyrosine-phosphorylation-regulated kinase 1A (Homo sapiens, UniProt Q13627); format: functional;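 further: measured against DYRK1A as one member of a broad kinome profiling panel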
[28] = molecular target: T1, Histone-lysine N-methyltransferase NSD2 (Homo sapiens, UniProt O96028); format: biochemical
T1 sequence (O96028 whole entry): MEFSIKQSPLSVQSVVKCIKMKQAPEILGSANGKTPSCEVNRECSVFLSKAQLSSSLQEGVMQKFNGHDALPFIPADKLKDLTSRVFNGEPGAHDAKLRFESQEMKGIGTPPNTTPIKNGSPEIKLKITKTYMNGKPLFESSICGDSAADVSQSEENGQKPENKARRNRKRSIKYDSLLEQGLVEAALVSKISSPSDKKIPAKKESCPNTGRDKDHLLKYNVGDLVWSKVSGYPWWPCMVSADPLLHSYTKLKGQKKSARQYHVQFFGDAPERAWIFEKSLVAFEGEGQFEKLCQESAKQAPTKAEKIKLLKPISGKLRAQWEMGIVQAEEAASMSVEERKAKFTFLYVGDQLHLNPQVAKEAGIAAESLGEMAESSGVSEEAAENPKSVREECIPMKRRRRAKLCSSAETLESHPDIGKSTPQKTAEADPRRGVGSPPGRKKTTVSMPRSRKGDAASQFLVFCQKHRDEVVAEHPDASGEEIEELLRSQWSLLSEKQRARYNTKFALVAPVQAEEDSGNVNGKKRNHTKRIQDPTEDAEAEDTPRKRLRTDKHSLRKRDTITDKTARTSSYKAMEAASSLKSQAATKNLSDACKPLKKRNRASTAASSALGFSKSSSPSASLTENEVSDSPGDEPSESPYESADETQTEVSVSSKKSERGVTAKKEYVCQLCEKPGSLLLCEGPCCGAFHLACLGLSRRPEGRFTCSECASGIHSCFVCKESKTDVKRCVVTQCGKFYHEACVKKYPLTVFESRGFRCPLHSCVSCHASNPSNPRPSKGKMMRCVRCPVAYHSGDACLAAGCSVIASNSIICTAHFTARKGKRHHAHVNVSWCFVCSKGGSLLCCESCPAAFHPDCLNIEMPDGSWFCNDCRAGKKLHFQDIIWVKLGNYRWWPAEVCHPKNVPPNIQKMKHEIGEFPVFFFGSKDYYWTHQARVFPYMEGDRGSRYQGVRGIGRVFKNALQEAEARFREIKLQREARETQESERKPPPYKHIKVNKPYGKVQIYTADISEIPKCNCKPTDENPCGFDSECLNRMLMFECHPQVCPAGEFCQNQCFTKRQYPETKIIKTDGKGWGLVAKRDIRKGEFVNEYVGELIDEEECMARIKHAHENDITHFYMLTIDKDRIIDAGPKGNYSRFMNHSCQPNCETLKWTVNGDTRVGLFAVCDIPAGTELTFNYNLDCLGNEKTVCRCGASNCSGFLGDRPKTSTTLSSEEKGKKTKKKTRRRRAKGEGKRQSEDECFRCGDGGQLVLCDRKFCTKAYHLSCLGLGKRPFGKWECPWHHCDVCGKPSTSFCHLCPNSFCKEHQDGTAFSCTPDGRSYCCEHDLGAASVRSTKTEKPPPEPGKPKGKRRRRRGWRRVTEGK

Insulin-like growth factor 1 receptor, sequence (P08069 31-736 limits assumed): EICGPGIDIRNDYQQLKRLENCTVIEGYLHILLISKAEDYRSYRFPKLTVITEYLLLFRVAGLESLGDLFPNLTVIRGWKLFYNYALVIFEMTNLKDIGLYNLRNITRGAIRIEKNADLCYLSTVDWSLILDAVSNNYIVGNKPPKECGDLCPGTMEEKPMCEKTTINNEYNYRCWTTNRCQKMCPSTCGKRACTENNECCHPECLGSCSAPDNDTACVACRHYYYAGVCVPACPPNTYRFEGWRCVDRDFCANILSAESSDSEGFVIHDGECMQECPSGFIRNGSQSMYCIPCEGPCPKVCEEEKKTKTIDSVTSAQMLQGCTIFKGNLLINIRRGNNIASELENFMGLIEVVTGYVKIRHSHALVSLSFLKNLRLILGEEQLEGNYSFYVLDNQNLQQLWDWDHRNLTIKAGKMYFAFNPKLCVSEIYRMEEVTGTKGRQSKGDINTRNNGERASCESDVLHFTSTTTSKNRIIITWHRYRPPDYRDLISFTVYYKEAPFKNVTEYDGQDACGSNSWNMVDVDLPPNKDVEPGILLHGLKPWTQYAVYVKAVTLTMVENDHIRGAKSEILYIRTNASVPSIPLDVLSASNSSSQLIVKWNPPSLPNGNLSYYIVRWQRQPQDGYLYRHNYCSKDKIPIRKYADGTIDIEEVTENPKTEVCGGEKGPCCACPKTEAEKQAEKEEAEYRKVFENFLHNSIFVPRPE
Insulin-like growth factor 1 receptor, sequence (P08069 741-1367 limits assumed): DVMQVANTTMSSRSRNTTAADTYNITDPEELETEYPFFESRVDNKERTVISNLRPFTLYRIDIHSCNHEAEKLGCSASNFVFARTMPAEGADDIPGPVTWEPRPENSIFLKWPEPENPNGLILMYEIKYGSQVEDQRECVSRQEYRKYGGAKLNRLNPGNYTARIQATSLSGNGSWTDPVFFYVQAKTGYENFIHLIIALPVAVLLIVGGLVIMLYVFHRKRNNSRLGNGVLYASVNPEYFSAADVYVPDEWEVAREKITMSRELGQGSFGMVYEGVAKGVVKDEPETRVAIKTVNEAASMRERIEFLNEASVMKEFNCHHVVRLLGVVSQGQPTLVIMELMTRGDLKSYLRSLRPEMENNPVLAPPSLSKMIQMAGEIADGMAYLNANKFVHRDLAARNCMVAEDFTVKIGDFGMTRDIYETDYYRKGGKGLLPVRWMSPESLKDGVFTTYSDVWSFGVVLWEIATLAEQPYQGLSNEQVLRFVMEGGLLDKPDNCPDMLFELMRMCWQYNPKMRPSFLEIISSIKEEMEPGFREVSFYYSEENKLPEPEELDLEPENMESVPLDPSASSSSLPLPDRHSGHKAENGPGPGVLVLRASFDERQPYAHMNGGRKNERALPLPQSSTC
Tyrosine-protein kinase Lck, sequence (P06239 whole entry): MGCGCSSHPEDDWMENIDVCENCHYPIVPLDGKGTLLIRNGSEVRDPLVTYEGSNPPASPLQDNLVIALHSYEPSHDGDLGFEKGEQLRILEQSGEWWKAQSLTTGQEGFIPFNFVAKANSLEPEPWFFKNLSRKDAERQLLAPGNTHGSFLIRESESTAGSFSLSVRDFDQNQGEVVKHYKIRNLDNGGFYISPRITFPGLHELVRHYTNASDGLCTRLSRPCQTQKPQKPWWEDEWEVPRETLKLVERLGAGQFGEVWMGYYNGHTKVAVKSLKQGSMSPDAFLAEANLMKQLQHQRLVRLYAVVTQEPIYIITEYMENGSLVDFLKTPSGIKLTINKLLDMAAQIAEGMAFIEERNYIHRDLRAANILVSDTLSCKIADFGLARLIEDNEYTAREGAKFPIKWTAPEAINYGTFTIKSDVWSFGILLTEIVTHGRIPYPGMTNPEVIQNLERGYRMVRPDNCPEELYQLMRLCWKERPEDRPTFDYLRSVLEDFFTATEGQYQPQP
LIM domain kinase 1, sequence (P53667 whole entry, the tested form may be a part): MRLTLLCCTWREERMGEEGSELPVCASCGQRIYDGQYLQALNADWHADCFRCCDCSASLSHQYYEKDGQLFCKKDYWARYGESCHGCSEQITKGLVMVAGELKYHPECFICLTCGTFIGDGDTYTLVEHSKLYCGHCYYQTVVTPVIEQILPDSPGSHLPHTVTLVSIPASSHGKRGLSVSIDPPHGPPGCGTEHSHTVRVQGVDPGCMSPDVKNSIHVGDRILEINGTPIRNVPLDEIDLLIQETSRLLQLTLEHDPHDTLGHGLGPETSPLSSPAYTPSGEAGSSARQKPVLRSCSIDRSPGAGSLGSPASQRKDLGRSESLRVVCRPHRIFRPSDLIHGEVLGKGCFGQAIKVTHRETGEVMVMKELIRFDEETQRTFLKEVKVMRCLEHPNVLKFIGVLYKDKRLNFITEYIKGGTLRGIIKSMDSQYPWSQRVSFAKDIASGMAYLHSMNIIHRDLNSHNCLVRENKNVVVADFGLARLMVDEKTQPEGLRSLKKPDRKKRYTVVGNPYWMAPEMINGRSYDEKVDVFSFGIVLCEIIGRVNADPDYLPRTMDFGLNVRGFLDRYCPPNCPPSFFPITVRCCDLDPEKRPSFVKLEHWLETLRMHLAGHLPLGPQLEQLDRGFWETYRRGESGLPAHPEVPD
Macrophage colony-stimulating factor 1 receptor, sequence (P07333 whole entry): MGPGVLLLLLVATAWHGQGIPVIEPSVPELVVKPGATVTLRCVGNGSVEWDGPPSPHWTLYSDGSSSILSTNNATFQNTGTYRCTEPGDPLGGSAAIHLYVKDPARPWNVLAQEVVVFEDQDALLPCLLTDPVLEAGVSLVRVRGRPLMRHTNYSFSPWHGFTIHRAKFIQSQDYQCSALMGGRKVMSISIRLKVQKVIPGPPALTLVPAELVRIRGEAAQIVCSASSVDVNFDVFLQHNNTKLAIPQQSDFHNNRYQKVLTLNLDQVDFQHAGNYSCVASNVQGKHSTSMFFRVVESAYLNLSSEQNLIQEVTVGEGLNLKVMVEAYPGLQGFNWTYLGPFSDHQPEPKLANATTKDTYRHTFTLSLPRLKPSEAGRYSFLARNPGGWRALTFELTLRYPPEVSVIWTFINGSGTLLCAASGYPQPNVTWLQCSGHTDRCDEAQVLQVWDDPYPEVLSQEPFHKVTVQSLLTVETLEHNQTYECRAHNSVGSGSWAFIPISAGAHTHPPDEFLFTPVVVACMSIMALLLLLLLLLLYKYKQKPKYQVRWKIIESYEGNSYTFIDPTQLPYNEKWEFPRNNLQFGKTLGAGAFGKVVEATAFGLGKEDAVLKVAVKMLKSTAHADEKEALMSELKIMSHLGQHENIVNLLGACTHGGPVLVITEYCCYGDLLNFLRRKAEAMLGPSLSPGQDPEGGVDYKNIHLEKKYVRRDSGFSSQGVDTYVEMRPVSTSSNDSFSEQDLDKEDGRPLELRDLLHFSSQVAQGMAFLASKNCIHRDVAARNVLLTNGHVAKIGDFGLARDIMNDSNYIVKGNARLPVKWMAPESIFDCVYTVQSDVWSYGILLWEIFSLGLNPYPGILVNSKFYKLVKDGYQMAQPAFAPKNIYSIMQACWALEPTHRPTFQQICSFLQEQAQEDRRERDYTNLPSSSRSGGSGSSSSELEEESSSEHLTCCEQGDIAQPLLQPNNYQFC
Serine/threonine-protein kinase Nek2, sequence (P51955 whole entry): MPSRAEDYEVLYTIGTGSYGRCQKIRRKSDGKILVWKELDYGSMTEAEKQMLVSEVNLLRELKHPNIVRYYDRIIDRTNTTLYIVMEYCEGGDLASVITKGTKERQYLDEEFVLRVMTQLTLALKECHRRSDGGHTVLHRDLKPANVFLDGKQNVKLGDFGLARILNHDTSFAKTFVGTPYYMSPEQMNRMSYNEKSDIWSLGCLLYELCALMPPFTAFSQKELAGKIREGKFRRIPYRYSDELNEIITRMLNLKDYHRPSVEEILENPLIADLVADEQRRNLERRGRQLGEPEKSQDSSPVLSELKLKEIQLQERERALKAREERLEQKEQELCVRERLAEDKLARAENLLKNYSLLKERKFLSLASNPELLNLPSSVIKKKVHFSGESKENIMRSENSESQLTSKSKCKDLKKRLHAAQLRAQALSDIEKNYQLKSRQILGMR
Serine/threonine-protein kinase Chk1, sequence (O14757 whole entry): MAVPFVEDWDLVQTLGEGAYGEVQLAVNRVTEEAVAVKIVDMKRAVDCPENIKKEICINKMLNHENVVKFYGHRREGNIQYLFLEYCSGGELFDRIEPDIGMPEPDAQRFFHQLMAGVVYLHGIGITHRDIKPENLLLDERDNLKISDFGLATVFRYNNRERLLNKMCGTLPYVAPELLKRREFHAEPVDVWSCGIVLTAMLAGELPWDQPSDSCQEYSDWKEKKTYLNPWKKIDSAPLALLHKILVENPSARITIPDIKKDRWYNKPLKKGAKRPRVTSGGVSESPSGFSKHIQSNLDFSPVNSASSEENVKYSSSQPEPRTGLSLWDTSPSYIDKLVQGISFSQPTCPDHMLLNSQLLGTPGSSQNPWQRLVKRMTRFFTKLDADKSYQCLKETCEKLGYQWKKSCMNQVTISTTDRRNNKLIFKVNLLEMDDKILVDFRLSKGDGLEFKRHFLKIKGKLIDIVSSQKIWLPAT
Glycogen synthase kinase-3 alpha, sequence (P49840 whole entry): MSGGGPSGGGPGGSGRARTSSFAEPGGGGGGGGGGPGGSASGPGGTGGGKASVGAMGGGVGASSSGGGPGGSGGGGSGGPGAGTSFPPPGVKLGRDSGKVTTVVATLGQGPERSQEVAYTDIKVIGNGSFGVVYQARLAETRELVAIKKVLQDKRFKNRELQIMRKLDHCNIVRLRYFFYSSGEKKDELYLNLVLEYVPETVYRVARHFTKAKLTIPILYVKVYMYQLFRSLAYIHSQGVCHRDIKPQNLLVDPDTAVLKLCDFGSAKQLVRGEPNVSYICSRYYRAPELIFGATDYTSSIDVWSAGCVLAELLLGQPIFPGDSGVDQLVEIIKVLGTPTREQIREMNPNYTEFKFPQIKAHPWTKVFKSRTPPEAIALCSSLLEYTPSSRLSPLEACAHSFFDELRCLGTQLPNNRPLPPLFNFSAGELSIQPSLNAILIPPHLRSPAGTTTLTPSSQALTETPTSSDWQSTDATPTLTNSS

## CCOC(=O)c1cn(-c2ccc(O)cc2C)c2cc(-c3ccncc3)ccc2c1=O
[1]
  Ki: > 7.94 µM (inactive)
[2]
  Ki: > 1.58 µM (inactive)
[3]
  Ki: > 10 µM (inactive)
[4]
  Ki: > 2.51 µM (inactive)
[5]
  Ki: > 1.26 µM (inactive)
[6]
  Ki: > 10 µM (inactive)
[7]
  Ki: > 6.31 µM (inactive)
[8]
  Ki: > 5.01 µM (inactive)
[9]
  Ki: > 5.01 µM (inactive)
[10]
  Ki: > 3.98 µM (inactive)
[11]
  Ki: > 10 µM (inactive)
[12]
  Ki: > 2.51 µM (inactive)
[13]
  Ki: 7.94 µM (active)
[14]
  Ki: > 3.16 µM (inactive)
[15]
  Ki: > 7.94 µM (inactive)
[16]
  Ki: > 0.631 µM (inactive)
[17]
  Ki: > 7.94 µM (inactive)
[18]
  Ki: 5.01 µM (active)
[19]
  Ki: > 1 µM (inactive)
[20]
  Ki: > 6.31 µM (inactive)
[21]
  Ki: 0.158 µM (active)
[22]
  Ki: > 0.794 µM (inactive)
[23]
  Ki: > 10 µM (inactive)
[24]
  Ki: > 6.31 µM (inactive)
[25]
  Ki: > 5.01 µM (inactive)
[26]
  Ki: > 2.51 µM (inactive)
[27]
  Ki: > 6.31 µM (inactive)

## O=C(O)c1[nH]c2ccccc2c1C(c1cc(Cl)cc([N+](=O)[O-])c1O)c1c(C(=O)O)[nH]c2ccccc12
[28]
  AC50: 16.6 µM (active)

## O=C1C=C(NCc2ccccc2)c2ccccc2C1=O
[28]
  AC50: 2.16 µM (active)

## Cc1cc(=O)[nH]nc1-c1ccc(NC(=O)Nc2cc(C(F)(F)F)ccc2F)c(Cl)c1
[1]
  Ki: > 3.98 µM (inactive)
[2]
  Ki: > 2.51 µM (inactive)
[3]
  Ki: > 3.16 µM (inactive)
[4]
  Ki: > 6.31 µM (inactive)
[5]
  Ki: > 5.01 µM (inactive)
[6]
  Ki: > 6.31 µM (inactive)
[7]
  Ki: > 1.58 µM (inactive)
[8]
  Ki: > 5.01 µM (inactive)
[9]
  Ki: > 3.98 µM (inactive)
[10]
  Ki: > 3.98 µM (inactive)
[11]
  Ki: > 3.16 µM (inactive)
[12]
  Ki: 0.0631 µM (active)
[13]
  Ki: > 3.98 µM (inactive)
[14]
  Ki: > 2.51 µM (inactive)
[15]
  Ki: > 3.16 µM (inactive)
[16]
  Ki: > 2.51 µM (inactive)
[17]
  Ki: 0.316 µM (active)
[18]
  Ki: > 3.16 µM (inactive)
[19]
  Ki: > 2.51 µM (inactive)
[20]
  Ki: > 3.98 µM (inactive)
[21]
  Ki: > 3.98 µM (inactive)
[22]
  Ki: > 6.31 µM (inactive)
[23]
  Ki: > 3.16 µM (inactive)
[24]
  Ki: > 3.98 µM (inactive)
[25]
  Ki: 0.01 µM (active)
[26]
  Ki: > 2.51 µM (inactive)
[27]
  Ki: > 2 µM (inactive)

— ChEMBL document CHEMBL1201862, “PubChem BioAssay data set” (2004)
